Test system: Escherichia coli (ECO) isolates
Assay: MIC of compounds alone and combined with antibacterials, broth microdilution (CLSI)
Format: cell-based
Summary of the method: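 Broth microdilution in cation-adjusted Mueller-Hinton broth, inoculum 5.10^5 CFU/mL, 16-20 h at 35° C in ambient air, on genotyped isolates. Compound MIC, alone or with an antibacterial, taken visually as lowest concentration preventing growth; antibacterial MIC determined at each compound concentration.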

With `C=CC1=C(C(=O)O)N2C(=O)[C@@H](NC(=O)/C(=N\OCC(=O)O)c3csc(N)n3)[C@H]2SC1` [FIX, Cefixime] the “MIC ATB in combination” value (ECO URF20, AF3 @ 8 μg/mL) was 2 µg/mL, the “MIC ATB in combination” value (ECO URF20, CLA @ 4 μg/mL) was greater than 128 µg/mL and the MIC (strain ECO 4133, genotype TEM-30, OXA-1) was 0.5 µg/mL. The MIC (strain ECO 5302, genotype TEM-1, OXA-1) was 0.5 µg/mL, the MIC (strain ECO 131119, genotype TEM-1, OXA-48) was “<=0.25 μg/mL” and the MIC (strain ECO 180070, genotype TEM-1, CTX-M-15) was 128 µg/mL. The MIC (strain ECO 190314, genotype CTX-M-1) was 16 µg/mL, the MIC (strain ECO 190317, compound alone) was greater than 128 µg/mL and the MIC (strain ECO 190317, genotype TEM-1, SHV-12, CTX-M-15, OXA-1) was greater than 128 µg/mL. For the same compound, the MIC (strain ECO 190457, compound alone) was 128 µg/mL, the MIC (strain ECO 190457, genotype CTX-M-15, OXA-1) was 128 µg/mL and the MIC (strain ECO 190549, genotype CTX-M-1) was 16 µg/mL. For the same compound, the MIC (strain ECO 200159, genotype TEM-1, CTX-M-14) was 8 µg/mL, the MIC (strain ECO 200259, genotype CTX-M-14) was 8 µg/mL and the MIC (strain ECO 200344, genotype CTX-M-1) was 32 µg/mL. It also gave an MIC (strain ECO 260096, genotype CTX-M-132) greater than 128 µg/mL, an MIC (strain ECO 260304, genotype CTX-M-15) of 32 µg/mL and an MIC (strain ECO 260508, genotype TEM-1, CTX-M-15, OXA-1) greater than 128 µg/mL. The MIC (strain ECO RGN238, genotype OXA-1) was “<=0.25 μg/mL”, the MIC (strain ECO UFR15, genotype TEM-1, OXA-48) was 1 µg/mL and the MIC (strain ECO UFR16, compound alone) was greater than 128 µg/mL. For the same compound, the MIC (strain ECO UFR16, genotype TEM-1, CTX-M-15, OXA-1, OXA-48) was greater than 128 µg/mL, the MIC (strain ECO UFR17, genotype TEM-1, CTX-M-15, CMY-2, OXA-1, OXA-181) was greater than 128 µg/mL and the MIC (strain ECO UFR18, genotype CTX-M-15, OXA-204) was greater than 128 µg/mL. It also gave an MIC (strain ECO UFR19, genotype CTX-M-15, CMY-2, OXA-1, OXA-204) greater than 128 µg/mL, an MIC (strain ECO UFR20, compound alone) of 512 µg/mL and an MIC (strain ECO UFR20, genotype SHV-1, CTX-M-15, OXA-1, OXA-232) of 512 µg/mL. The MIC (strain ECO UFR32, genotype TEM-1, VEB-1, OXA-10) was 128 µg/mL, the MIC (strain ECO UFR39, genotype CTX-M-15, NDM-1) was greater than 128 µg/mL and the MIC (strain ECO UFR41, genotype TEM-1, CTX-M-15, CMY-2, OXA-1, NDM-4) was greater than 128 µg/mL. It also gave an MIC (strain ECO UFR45, genotype TEM-1, CMY-4, OXA-1, OXA-48, VIM-1) greater than 128 µg/mL, an MIC (strain ECO UFR52, genotype TEM-1, SHV-12, IMP-8) greater than 128 µg/mL and an MIC (strain ECO UFR61O, compound alone) of 32 µg/mL. It also gave an MIC (strain ECO UFR61O, genotype TEM-1, KPC-2) of 32 µg/mL, an MIC (strain ECO UFR62, genotype TEM-1, CTX-M-9, KPC-2) of 128 µg/mL and an MIC (strain ECO UFR74, genotype SHV-1, DHA-1) greater than 128 µg/mL. The MIC (strain ECO UFR86, genotype ompC-, ompF-) was 2 µg/mL, the MIC (strain ECO UFR174, genotype TEM-1, KPC-2, OXA-1) was 8 µg/mL and the MIC (strain ECO UFR175, genotype TEM-1, KPC-2, OXA-9) was 64 µg/mL. For the same compound, the MIC (strain ECO UFR176, genotype KPC-3, OXA-9*) was 64 µg/mL, the MIC (strain ECO UFR177, genotype TEM-1, CTX-M-15, OXA-1, OXA-2, NDM-1, RmtC, antibiotic alone) was greater than 128 µg/mL and the “MIC ATB in combination” value (strain ECO UFR177, with AF2 @ 8 μg/mL) was “<=0.25 μg/mL”. The “MIC ATB in combination” value (strain ECO UFR177, with AF3 @ 8 μg/mL) was less than 0.25 µg/mL, the “MIC ATB in combination” value (strain ECO UFR177, with CLA @ 4 μg/mL) was greater than 128 µg/mL and the MIC (strain ECO UFR178, genotype TEM-1, CTX-M-15, OXA-9, NDM-1, antibiotic alone) was greater than 128 µg/mL. The “MIC ATB in combination” value (strain ECO UFR178, with AF2 @ 8 μg/mL) was less than 0.25 µg/mL, the “MIC ATB in combination” value (strain ECO UFR178, with AF3 @ 8 μg/mL) was less than 0.25 µg/mL and the “MIC ATB in combination” value (strain ECO UFR178, with CLA @ 4 μg/mL) was greater than 128 µg/mL. The MIC (strain ECO UFR179, genotype TEM-1, SHV-12, CTX-M-15, NDM-1, antibiotic alone) was greater than 128 µg/mL, the “MIC ATB in combination” value (strain ECO UFR179, with AF2 @ 8 μg/mL) was less than 0.25 µg/mL and the “MIC ATB in combination” value (strain ECO UFR179, with AF3 @ 8 μg/mL) was less than 0.25 µg/mL. The “MIC ATB in combination” value (strain ECO UFR179, with CLA @ 4 μg/mL) was greater than 128 µg/mL, the MIC (strain ECO UFR180, genotype TEM-1, CMY-30, OXA-1, NDM-1, antibiotic alone) was greater than 128 µg/mL and the “MIC ATB in combination” value (strain ECO UFR180, with AF2 @ 8 μg/mL) was less than 0.25 µg/mL. The “MIC ATB in combination” value (strain ECO UFR180, with AF3 @ 8 μg/mL) was less than 0.25 µg/mL, the “MIC ATB in combination” value (strain ECO UFR180, with CLA @ 4 μg/mL) was greater than 128 µg/mL and the MIC (strain ECO UFR181, genotype TEM-1, CTX-M-15, NDM-5, antibiotic alone) was greater than 128 µg/mL. For the same compound, the “MIC ATB in combination” value (strain ECO UFR181, with AF2 @ 8 μg/mL) was “<=0.25 μg/mL”, the “MIC ATB in combination” value (strain ECO UFR181, with AF3 @ 8 μg/mL) was greater than 128 µg/mL and the “MIC ATB in combination” value (strain ECO UFR181, with CLA @ 4 μg/mL) was greater than 128 µg/mL. The MIC (strain ECO UFR182, genotype CTX-M-15, OXA-1, NDM-6, antibiotic alone) was greater than 128 µg/mL, the “MIC ATB in combination” value (strain ECO UFR182, with AF2 @ 8 μg/mL) was less than 0.25 µg/mL and the “MIC ATB in combination” value (strain ECO UFR182, with AF3 @ 8 μg/mL) was less than 0.25 µg/mL. For the same compound, the “MIC ATB in combination” value (strain ECO UFR182, with CLA @ 4 μg/mL) was greater than 128 µg/mL, the MIC (strain ECO UFR183, genotype CTX-M-15, OXA-1, NDM-7, antibiotic alone) was greater than 128 µg/mL and the “MIC ATB in combination” value (strain ECO UFR183, with AF2 @ 8 μg/mL) was greater than 128 µg/mL. The “MIC ATB in combination” value (strain ECO UFR183, with AF3 @ 8 μg/mL) was greater than 128 µg/mL, the “MIC ATB in combination” value (strain ECO UFR183, with CLA @ 4 μg/mL) was greater than 128 µg/mL and the MIC (strain ECO UFR184, genotype CTX-M-15, CMY-4, OXA-1, OXA-204) was greater than 128 µg/mL. The MIC (strain ECO UFR185, genotype OXA-48) was greater than 128 µg/mL, the MIC (strain ECO UFR186, genotype TEM-1, CTX-M-14, OXA-48) was 32 µg/mL and the “MIC ATB in combination” value (strain ECO UFR186, with AF2 @ 8 μg/mL) was less than 0.25 µg/mL. For the same compound, the “MIC ATB in combination” value (strain ECO UFR186, with AF3 @ 8 μg/mL) was less than 0.25 µg/mL, the “MIC ATB in combination” value (strain ECO UFR186, with CLA @ 4 μg/mL) was 8 µg/mL and the MIC (strain ECO UFR187, genotype CTX-M-15, OXA-48) was 32 µg/mL. The “MIC ATB in combination” value (strain ECO UFR187, with AF2 @ 8 μg/mL) was “<=0.25 μg/mL”, the “MIC ATB in combination” value (strain ECO UFR187, with AF3 @ 8 μg/mL) was 0.5 µg/mL and the “MIC ATB in combination” value (strain ECO UFR187, with CLA @ 4 μg/mL) was 2 µg/mL. For the same compound, the MIC (strain ECO UFR189, genotype TEM-1, CTX-M-15, OXA-48) was greater than 128 µg/mL, the “MIC ATB in combination” value (strain ECO UFR189, with AF2 @ 8 μg/mL) was less than 0.25 µg/mL and the “MIC ATB in combination” value (strain ECO UFR189, with AF3 @ 8 μg/mL) was less than 0.25 µg/mL. The “MIC ATB in combination” value (strain ECO UFR189, with CLA @ 4 μg/mL) was 4 µg/mL, the MIC (strain ECO UFR190, genotype CTX-M-24, OXA-48) was 64 µg/mL and the “MIC ATB in combination” value (strain ECO UFR190, with AF2 @ 8 μg/mL) was less than 0.25 µg/mL. The “MIC ATB in combination” value (strain ECO UFR190, with AF3 @ 8 μg/mL) was less than 0.25 µg/mL, the “MIC ATB in combination” value (strain ECO UFR190, with CLA @ 4 μg/mL) was 8 µg/mL and the MIC (strain ECO UFR191, genotype TEM-1, CTX-M-24, OXA-48) was greater than 128 µg/mL. For the same compound, the “MIC ATB in combination” value (strain ECO UFR191, with AF2 @ 8 μg/mL) was less than 0.25 µg/mL, the “MIC ATB in combination” value (strain ECO UFR191, with AF3 @ 8 μg/mL) was less than 0.25 µg/mL and the “MIC ATB in combination” value (strain ECO UFR191, with CLA @ 4 μg/mL) was 4 µg/mL. The MIC (strain ECO UFR204, genotype TEM-1, CMY-4, OXA-48, VIM-1, antibiotic alone) was greater than 128 µg/mL, the “MIC ATB in combination” value (strain ECO UFR204, with AF2 @ 8 μg/mL) was less than 0.25 µg/mL and the “MIC ATB in combination” value (strain ECO UFR204, with AF3 @ 8 μg/mL) was less than 0.25 µg/mL. For the same compound, the “MIC ATB in combination” value (strain ECO UFR204, with CLA @ 4 μg/mL) was greater than 128 µg/mL, the MIC (strain ECO UFR205, genotype CTX-M-15, VIM-4, antibiotic alone) was greater than 128 µg/mL and the “MIC ATB in combination” value (strain ECO UFR205, with AF2 @ 8 μg/mL) was “<=0.25 μg/mL”. For the same compound, the “MIC ATB in combination” value (strain ECO UFR205, with AF3 @ 8 μg/mL) was “<=0.25 μg/mL”, the “MIC ATB in combination” value (strain ECO UFR205, with CLA @ 4 μg/mL) was greater than 128 µg/mL and the MIC (strain ECO UFR206, genotype TEM-1, CTX-M-15, OXA-1, VIM-4, antibiotic alone) was greater than 128 µg/mL.

Source: patent US20200017495A1, “NOVEL HETEROCYCLIC COMPOUNDS AND THEIR USE IN PREVENTING OR TREATING BACTERIAL INFECTIONS” (priority 2017, published 2020)
